Reference: the supplement of paper PMC4862054

Legend:
Settings in all cases: incubation time: 72 h
HCC1143 [1] = test: normalised response (% of control), CellTiter-Glo; higher = more viable cells (100 = DMSO, 0 = benzethonium chloride kill control)
Protocol: (§1)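 DSRT, 72 h incubation, CellTox Green / CellTiter-Glo readout. Signal is normalised to DMSO and benzethonium chloride controls. Value is the normalised response at dose 3.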

CAL-120 [2] = test: as above
Protocol: as §1

Hs578T [3] = test: as above
Protocol: as §1

MCF-10A [4] = test: as above
Protocol: as §1

HCC1937 [5] = test: as above
Protocol: as §1

MDA-MB-468 [6] = test: as above
Protocol: as §1

MDA-MB-436 [7] = test: as above
Protocol: as §1

BT-549 [8] = test: as above
Protocol: as §1

HDQ-P1 [9] = test: as above
Protocol: as §1

MFM-223 [10] = test: as above
Protocol: as §1

SK-BR-3 = test: as above
Protocol: as §1

HCC1599 [11] = test: as above
Protocol: as §1

DU-4475 [12] = test: as above
Protocol: as §1

BT-474 [13] = test: as above
Protocol: as §1

CAL-85-1 [14] = test: as above
Protocol: as §1

CAL-148 [15] = test: as above
Protocol: as §1

CAL-51 [16] = test: as above
Protocol: as §1

MDA-MB-453 [17] = test: as above
Protocol: as §1

MDA-MB-231 [18] = test: as above
Protocol: as §1

HCC1143 [19] = test: normalised response (% of control), CellTox Green; higher = less cell death (100 = DMSO, 0 = benzethonium chloride kill control)
Outline: (§2)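 Every value is a normalised signal taken at one concentration of a dilution series. Compound was placed in 384-well plates at 5 concentrations in 10-fold steps over a compound-specific 10,000-fold range, and 20 µl of breast cancer cell suspension was seeded onto it. After 72 h, CellTox Green fluorescence (485/520 nm) was measured first and CellTiter-Glo luminescence second, following 10 min at room temperature. Each plate was scaled to 0.1 % DMSO (100) and a positive kill control (0).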

CAL-120 [20] = test: as above
Outline: as §2

Hs578T [21] = test: as above
Outline: as §2

MCF-10A [22] = test: as above
Outline: as §2

HCC1937 [23] = test: as above
Outline: as §2

MDA-MB-468 [24] = test: as above
Outline: as §2

MDA-MB-436 [25] = test: as above
Outline: as §2

BT-549 [26] = test: as above
Outline: as §2

MFM-223 [27] = test: as above
Outline: as §2

HCC1599 [28] = test: as above
Outline: as §2

DU-4475 [29] = test: as above
Outline: as §2

BT-474 [30] = test: as above
Outline: as §2

CAL-85-1 [31] = test: as above
Outline: as §2

CAL-148 [32] = test: as above
Outline: as §2

CAL-51 [33] = test: as above
Outline: as §2

MDA-MB-453 [34] = test: as above
Outline: as §2

MDA-MB-231 [35] = test: as above
Outline: as §2

HDQ-P1 [36] = test: as above
Outline: as §2

Cc1c(Cn2c(C)nc3c(C(=O)O)cc(N4CCOCC4)cc32)cccc1C(F)(F)F (100 nM)
normalised response (HCC1143 [1]): 101%
normalised response (CAL-120 [2]): 102%
normalised response (Hs578T [3]): 101%
normalised response (MCF-10A [4]): 111%
normalised response (HCC1937 [5]): 94.5%
normalised response (MDA-MB-468 [6]): 89.2%
normalised response (MDA-MB-436 [7]): 102%
normalised response (BT-549 [8]): 86.2%
normalised response (HDQ-P1 [9]): 103%
normalised response (MFM-223 [10]): 108%
normalised response (SK-BR-3): 107%
normalised response (HCC1599 [11]): 101%
normalised response (DU-4475 [12]): 103%
normalised response (BT-474 [13]): 97.2%
normalised response (CAL-85-1 [14]): 96.6%
normalised response (CAL-148 [15]): 111%
normalised response (CAL-51 [16]): 62.5%
normalised response (MDA-MB-453 [17]): 91.3%
normalised response (MDA-MB-231 [18]): 104%
normalised response (HCC1143 [19]): 113%
normalised response (CAL-120 [20]): 106%
normalised response (Hs578T [21]): 109%
normalised response (MCF-10A [22]): 101%
normalised response (HCC1937 [23]): 78%
normalised response (MDA-MB-468 [24]): 134%
normalised response (MDA-MB-436 [25]): 108%
normalised response (BT-549 [26]): 111%
normalised response (MFM-223 [27]): 107%
normalised response (HCC1599 [28]): 107%
normalised response (DU-4475 [29]): 109%
normalised response (BT-474 [30]): 104%
normalised response (CAL-85-1 [31]): 104%
normalised response (CAL-148 [32]): 105%
normalised response (CAL-51 [33]): 86.7%
normalised response (MDA-MB-453 [34]): 111%
normalised response (MDA-MB-231 [35]): 124%

O=S(=O)(c1cccc2cnccc12)N1CCCNCC1 [Fasudil] (500 nM)
normalised response (HCC1143 [1]): 101%
normalised response (CAL-120 [2]): 97.9%
normalised response (Hs578T [3]): 104%
normalised response (MCF-10A [4]): 90.7%
normalised response (HCC1937 [5]): 100%
normalised response (MDA-MB-468 [6]): 101%
normalised response (MDA-MB-436 [7]): 103%
normalised response (BT-549 [8]): 101%
normalised response (HDQ-P1 [9]): 105%
normalised response (MFM-223 [10]): 108%
normalised response (SK-BR-3): 101%
normalised response (HCC1599 [11]): 107%
normalised response (DU-4475 [12]): 106%
normalised response (BT-474 [13]): 98.3%
normalised response (CAL-85-1 [14]): 112%
normalised response (CAL-148 [15]): 105%
normalised response (CAL-51 [16]): 85.6%
normalised response (MDA-MB-453 [17]): 112%
normalised response (MDA-MB-231 [18]): 103%
normalised response (HCC1143 [19]): 75%
normalised response (CAL-120 [20]): 100%
normalised response (Hs578T [21]): 104%
normalised response (MCF-10A [22]): 95%
normalised response (HCC1937 [23]): 83.3%
normalised response (MDA-MB-468 [24]): 78.7%
normalised response (BT-549 [26]): 91.3%
normalised response (HDQ-P1 [36]): 102%
normalised response (MFM-223 [27]): 91.7%
normalised response (HCC1599 [28]): 101%
normalised response (DU-4475 [29]): 100%
normalised response (BT-474 [30]): 98.3%
normalised response (CAL-85-1 [31]): 95.6%
normalised response (CAL-148 [32]): 69.2%
normalised response (CAL-51 [33]): 102%
normalised response (MDA-MB-453 [34]): 99.9%
normalised response (MDA-MB-231 [35]): 101%

COc1nc(N)nc2c1ncn2[C@@H]1O[C@H](CO)[C@@H](O)[C@@H]1O [Nelarabine] (100 nM)
normalised response (HCC1143 [1]): 103%
normalised response (CAL-120 [2]): 94.2%
normalised response (Hs578T [3]): 87.1%
normalised response (MCF-10A [4]): 84.9%
normalised response (HCC1937 [5]): 95.5%
normalised response (MDA-MB-468 [6]): 95.6%
normalised response (MDA-MB-436 [7]): 94%
normalised response (BT-549 [8]): 98.1%
normalised response (HDQ-P1 [9]): 95.9%
normalised response (MFM-223 [10]): 89%
normalised response (SK-BR-3): 77.8%
normalised response (HCC1599 [11]): 103%
normalised response (DU-4475 [12]): 93.6%
normalised response (BT-474 [13]): 89.2%
normalised response (CAL-85-1 [14]): 94.7%
normalised response (CAL-148 [15]): 83.2%
normalised response (CAL-51 [16]): 90.7%
normalised response (MDA-MB-453 [17]): 87.2%
normalised response (MDA-MB-231 [18]): 94.2%
normalised response (CAL-120 [20]): 98.4%
normalised response (Hs578T [21]): 107%
normalised response (HCC1937 [23]): 88.7%
normalised response (MDA-MB-468 [24]): 135%
normalised response (MDA-MB-436 [25]): 90.5%
normalised response (BT-549 [26]): 98.7%
normalised response (MFM-223 [27]): 100%
normalised response (HCC1599 [28]): 87%
normalised response (DU-4475 [29]): 95.2%
normalised response (BT-474 [30]): 75.7%
normalised response (CAL-85-1 [31]): 90.6%
normalised response (CAL-148 [32]): 104%
normalised response (CAL-51 [33]): 93.8%
normalised response (MDA-MB-453 [34]): 97.5%
normalised response (MDA-MB-231 [35]): 92.1%

CCCCC/C=C/C=C1/C(=O)C=C[C@@H]1C/C=C\CCCC(=O)O [15D-PGJ2] (8 nM)
normalised response (HCC1143 [1]): 104%
normalised response (CAL-120 [2]): 107%
normalised response (Hs578T [3]): 96.9%
normalised response (MCF-10A [4]): 101%
normalised response (HCC1937 [5]): 99.1%
normalised response (MDA-MB-468 [6]): 94%
normalised response (MDA-MB-436 [7]): 101%
normalised response (BT-549 [8]): 99.3%
normalised response (HDQ-P1 [9]): 103%
normalised response (MFM-223 [10]): 98.5%
normalised response (SK-BR-3): 99.4%
normalised response (HCC1599 [11]): 86.3%
normalised response (DU-4475 [12]): 101%
normalised response (BT-474 [13]): 98.7%
normalised response (CAL-85-1 [14]): 100%
normalised response (CAL-148 [15]): 112%
normalised response (CAL-51 [16]): 97.1%
normalised response (MDA-MB-453 [17]): 100%
normalised response (MDA-MB-231 [18]): 107%
normalised response (HCC1143 [19]): 105%
normalised response (CAL-120 [20]): 99.3%
normalised response (Hs578T [21]): 113%
normalised response (MCF-10A [22]): 64.6%
normalised response (HCC1937 [23]): 101%
normalised response (MDA-MB-468 [24]): 82%
normalised response (MDA-MB-436 [25]): 103%
normalised response (BT-549 [26]): 112%
normalised response (MFM-223 [27]): 100%
normalised response (HCC1599 [28]): 111%
normalised response (DU-4475 [29]): 110%
normalised response (BT-474 [30]): 102%
normalised response (CAL-85-1 [31]): 109%
normalised response (CAL-148 [32]): 88.1%
normalised response (CAL-51 [33]): 107%
normalised response (MDA-MB-231 [35]): 118%
